Measurements: BindingDB's records for doi:10.1016/j.bmcl.2006.01.032 (Central Pharmaceutical Research Institute, 2006)

assay: Inhibition of HCV RNA replication in Huh5-2 cells after 48 hrs

In order of falling EC50:
1. Cc1ccc(C(Oc2ccc(-c3nc4cc(C(=O)O)ccc4n3C3CCCCC3)cc2)c2ccc(C)cc2)cc1 [1-cyclohexyl-2-(4-(dip-tolylmethoxy)phenyl)-1H-benzo[d]imidazole-5-carboxylic acid]  3.7 µM
2. O=C(O)c1ccc2c(c1)nc(-c1ccc(OC(c3ccc(Cl)cc3)c3ccc(Cl)cc3)cc1)n2C1CCCCC1 [2-(4-(bis(4-chlorophenyl)methoxy)phenyl)-1-cyclohexyl-1H-benzo[d]imidazole-5-carboxylic acid]  3.6 µM
3. O=C(O)c1ccc2c(c1)nc(-c1ccc(OC(c3cccc(F)c3)c3cccc(F)c3)cc1)n2C1CCCCC1 [2-(4-(bis(3-fluorophenyl)methoxy)phenyl)-1-cyclohexyl-1H-benzo[d]imidazole-5-carboxylic acid]  2.8 µM
4. O=C(O)c1ccc2c(c1)nc(-c1ccc(OC(c3ccccc3)c3ccccc3)cc1)n2C1CCCCC1 [2-(4-(benzhydryloxy)phenyl)-1-cyclohexyl-1H-benzo[d]imidazole-5-carboxylic acid]  2.6 µM
5. O=C(O)c1ccc2c(c1)nc(-c1ccc(OC(c3cccnc3)c3cccnc3)cc1F)n2C1CCCCC1 [1-Cyclohexyl-2-[4-(di-pyridin-3-yl-methoxy)-2-fluoro-phenyl]-1H-benzoimidazole-5-carboxylic acid]  2.6 µM
6. O=C(O)c1ccc2c(c1)nc(-c1ccc(OC(c3ccc(F)cc3)c3ccc(F)cc3)cc1)n2C1CCCCC1 [2-(4-(bis(4-fluorophenyl)methoxy)phenyl)-1-cyclohexyl-1H-benzo[d]imidazole-5-carboxylic acid]  2.2 µM
7. O=C(O)c1ccc2c(c1)nc(-c1ccc(OC(c3ccccc3)c3ccccc3)cc1F)n2C1CCCCC1 [2-(4-(benzhydryloxy)-2-fluorophenyl)-1-cyclohexyl-1H-benzo[d]imidazole-5-carboxylic acid]  1.9 µM
8. O=C(O)c1ccc2c(c1)nc(-c1ccc(OC(c3ccc(F)cc3)c3ccc(F)cc3)cc1F)n2C1CCCCC1 [2-(4-(bis(4-fluorophenyl)methoxy)-2-fluorophenyl)-1-cyclohexyl-1H-benzo[d]imidazole-5-carboxylic acid]  1.6 µM
9. CN(C)C(=O)c1ccc(C(Oc2ccc(-c3nc4cc(C(=O)O)ccc4n3C3CCCCC3)c(F)c2)c2ccc(C(=O)N(C)C)cc2)cc1 [2-{4-[Bis-(4-dimethylcarbamoyl-phenyl)-methoxy]-2-fluoro-phenyl}-1-cyclohexyl-1H-benzoimidazole-5-carboxylic acid]  1.2 µM
10. O=C(O)c1ccc2c(c1)nc(-c1ccc(OC(c3ccccc3)c3cccnc3)cc1F)n2C1CCCCC1 (stereo not given) [1-Cyclohexyl-2-[2-fluoro-4-(phenyl-pyridin-3-yl-methoxy)-phenyl]-1H-benzoimidazole-5-carboxylic acid]  1.1 µM
